PubChem BioAssay AID2060912 (Molecular Pharmacology Branch, DTP, NCI, 2025)

Tested on: HUVEC/MSC spheroids viability
Experiment: Human HUVEC/MSC cell line growth inhibition [KRAS2];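 for viability, T/C: percent of DMSO vehicle control luminescence so 100% = untreated viability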
Details: for IC50: curve of first compound; for viability, T/C: stronger effect = lower value; active = viability on the fitted dose curve at most 10% of control; inactive = the rest
Text: Multicellular complex tumor spheroid response to RAS pathway inhibitors in combination with a targeted agents in patient-derived cell lines with oncogenic KRAS variants from multiple cancer types
A high-throughput screen of multi-cell type tumor spheroids was designed to identify active combinations of targeted small molecules and KRAS pathway inhibitors. Complex spheroids include a stromal component modeled by human endothelial cells (HUVEC) and fibroblasts modeled by human mesenchymal stem cells (MSCs). The concentration ranges selected for each drug and investigational agent were based upon clinically achievable concentrations if the clinical Cmax of the agent was known. * [This particular assayID is a followup dataset requested by reviewers of the manuscript. It is a test of the HUVEC and MSC without the tumor cells, and was conducted using different drug plates and a different plate layout.]
Compounds. The drugs and investigational agents: BI-3406 (NSC825286), BAY-293 (NSC824723), batoprotafib (TNO155; NSC825523), sotorasib (AMG 510; NSC818433), MRTX1257 (NSC819558), elimusertib (BAY 1895344; NSC800525), molibresib (GSK525762; NSC774829), temuterkib (LY3214996; NSC803410), venetoclax (NSC766270), alisertib (NSC759677), olaparib (NSC753686), talazoparib (NSC767125), erdafitinib (NSC781556), ipatasertib (NSC767898), cabozantinib (NSC761068), nintedanib (NSC756659), abemaciclib (NSC768073), docetaxel (NSC628503), trametinib (NSC758246), and sapanisertib (NSC764658) were obtained from the National Cancer Institute (NCI) Developmental Therapeutics Program Chemical Repository. The FDA-approved anticancer drug set is available from the Developmental Therapeutics Program. […] The stock solutions were prepared in dimethyl sulfoxide (DMSO, Sigma-Aldrich, St. Louis, MO, cat. D2650) at 800-fold the tested concentration and stored at -70 degrees C prior to their use. All drugs and investigational agents were tested over a range starting from a high concentration at or near the clinical Cmax and decreasing in half-log increments. If the clinical Cmax for an agent had not been determined, the highest concentration tested was 10 microM.
Cell Culture. All cells were maintained in an incubator at 37 degrees C and 5% CO2 with 95% humidity. The PDC lines were cultured according to standard operating procedures established by the NCI PDMR (https://pdmr.cancer.gov/sops/default.htm). Briefly, all PDCs were thawed and cultured in Matrigel-coated flasks prepared with a working solution of 1X Ham's F-12 nutrient mix, without supplementation (Invitrogen, Waltham, MA, cat. 11765054), 100 U/mL penicillin-streptomycin (Invitrogen, cat. 15140122), and 2.5% Matrigel (Corning Inc., Corning, NY, cat. 354248) for the first three passages. All PDCs were cultured in complete DMEM/F-12 media containing advanced DMEM/F-12 (Invitrogen, cat. 12634028), 4.9% defined fetal bovine serum, heat inactivated (HyClone Laboratories Inc., Logan, UT, cat. SH30070.03HI), 389 ng/mL hydrocortisone (Sigma-Aldrich, cat. H4001), 9.7 ng/mL human EGF recombinant protein (Invitrogen, cat. PHG0313), 23.4 microg/mL adenine (Sigma-Aldrich, cat. A2786), 97.3 U/mL penicillin-streptomycin (Invitrogen, cat. 15140122), 1.9 mM L-glutamine (Invitrogen, cat. 25030081), and 9.7 microM Y-27632 dihydrochloride (Tocris Bioscience, Bristol, United Kingdom, cat. 1254). The PDCs were cultured in complete DMEM/F12 media without 9.7 microM Y-27632 dihydrochloride for at least two passages prior to the screen. The established cell line HOP-62 was cultured in RPMI 1640 medium, HEPES (Invitrogen, cat. 22400105) with 10% defined fetal bovine serum (HyClone Laboratories Inc., cat. SH30070.03) and 2 mM L-glutamine (Invitrogen, cat. 25030081). The pooled donor HUVEC were cultured in endothelial cell growth medium 2 (PromoCell, Heidelberg, Germany, cat. C-22011) and the hMSC were cultured in mesenchymal stem cell growth medium 2 (PromoCell, cat. C-28009). […]

CCN1CCN(Cc2ccc(Nc3ncc(F)c(-c4cc(F)c5nc(C)n(C(C)C)c5c4)n3)nc2)CC1 + C=CC(=O)N1CCN(c2nc(OCC3CCCN3C)nc3c2CCN(c2cccc4cccc(C)c24)C3)CC1CC#N
inactive: viability, T/C (second compound 0.00949 µM, first compound 0.00316 µM) 98.1% | viability, T/C (second compound 0.00949 µM, first compound 0.01 µM) 94.3% | viability, T/C (second compound 0.00949 µM, first compound 0.0316 µM) 82.5% | viability, T/C (second compound 0.00949 µM, first compound 0.1 µM) 83.7% | viability, T/C (second compound 0.00949 µM, first compound 0.316 µM) 98.7% | viability, T/C (second compound 0.00949 µM, first compound 1 µM) 149% | viability, T/C (second compound 0.03 µM, first compound 0.00316 µM) 80.7% | viability, T/C (second compound 0.03 µM, first compound 0.01 µM) 75.4% | viability, T/C (second compound 0.03 µM, first compound 0.0316 µM) 97.9% | viability, T/C (second compound 0.03 µM, first compound 0.1 µM) 84.2% | viability, T/C (second compound 0.03 µM, first compound 0.316 µM) 111% | viability, T/C (second compound 0.03 µM, first compound 1 µM) 142% | viability, T/C (second compound 0.0949 µM, first compound 0.00316 µM) 94.6% | viability, T/C (second compound 0.0949 µM, first compound 0.01 µM) 82% | viability, T/C (second compound 0.0949 µM, first compound 0.0316 µM) 84.1% | viability, T/C (second compound 0.0949 µM, first compound 0.1 µM) 98.7% | viability, T/C (second compound 0.0949 µM, first compound 0.316 µM) 113% | viability, T/C (second compound 0.0949 µM, first compound 1 µM) 146% | viability, T/C (second compound 0.3 µM, first compound 0.00316 µM) 74.5% | viability, T/C (second compound 0.3 µM, first compound 0.01 µM) 89% | viability, T/C (second compound 0.3 µM, first compound 0.0316 µM) 86.8% | viability, T/C (second compound 0.3 µM, first compound 0.1 µM) 81.3% | viability, T/C (second compound 0.3 µM, first compound 0.316 µM) 115% | viability, T/C (second compound 0.3 µM, first compound 1 µM) 126% | viability, T/C (second compound 0.949 µM, first compound 0.00316 µM) 85.4% | viability, T/C (second compound 0.949 µM, first compound 0.01 µM) 64.5% | viability, T/C (second compound 0.949 µM, first compound 0.0316 µM) 77.2% | viability, T/C (second compound 0.949 µM, first compound 0.1 µM) 79.2% | viability, T/C (second compound 0.949 µM, first compound 0.316 µM) 112% | viability, T/C (second compound 0.949 µM, first compound 1 µM) 161% | viability, T/C (second compound 3 µM, first compound 0.00316 µM) 97.8% | viability, T/C (second compound 3 µM, first compound 0.01 µM) 85.2% | viability, T/C (second compound 3 µM, first compound 0.0316 µM) 97.9% | viability, T/C (second compound 3 µM, first compound 0.1 µM) 109% | viability, T/C (second compound 3 µM, first compound 0.316 µM) 158% | viability, T/C (second compound 3 µM, first compound 1 µM) 106%
> 1 µM: IC50 (second compound 0.00949 µM) | IC50 (second compound 0.03 µM) | IC50 (second compound 0.0949 µM) | IC50 (second compound 0.3 µM) | IC50 (second compound 0.949 µM) | IC50 (second compound 3 µM)
